Literature values, collected in article PMC2924185 (Journal of the American Chemical Society, 2010).

Tested on: panel of human protein kinases
Conditions: for selectivity score: judged by similar criteria

Structure (SMILES)	potency among Src-family kinases (in words)	selectivity score
CC(C)(C)n1nc(-c2ccc(Cl)cc2)c2c(N)ncnc21 [PP2]	significantly more potent against Src-family members Fyn, Hck, and Lyn than against Src itself	
CN[C@@H]1C[C@H]2O[C@@](C)([C@@H]1OC)n1c3ccccc3c3c4c(c5c6ccccc6n2c5c31)C(=O)NC4 [staurosporine]		0.50
CNC(=O)c1cc(Oc2ccc(NC(=O)Nc3ccc(Cl)c(C(F)(F)F)c3)cc2)ccn1 [sorafenib]		0.10
Cc1ccc(-c2nn(C(C)(C)C)c3ncnc(N)c23)cc1 [PP1]	significantly more potent against Src-family members Fyn, Hck, and Lyn than against Src itself	
